Toxic doses and inconclusive results are not listed. No stated cut-off is given here; in the data, active means T/C of 150% or more; inactive means T/C below 125%.
Tested on: L1210 leukemia ip in BDF1 mice, survival T/C
Assay: NCI In Vivo Anticancer Drug Screen. Data for tumor model L1210 Leukemia (intraperitoneal) in B6D2F1 (BDF1) mice
Settings: endpoint: mean survival time, higher = longer survival
Outline: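 Survival endpoint. Drug-treated group vs vehicle group, expressed as T divided by C. Tumor passaged by transplantation.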

[1] = dose: 100.0 mg/kg/injection, schedule: Q01DX009 (ip), vehicle: Klucel (hydroxypropylcellulose) (HPC)
[2] = dose: 200.0 mg/kg/injection, schedule: Q01DX009 (ip), vehicle: Klucel (hydroxypropylcellulose) (HPC)
[3] = dose: 400.0 mg/kg/injection, schedule: Q01DX009 (ip), vehicle: Klucel (hydroxypropylcellulose) (HPC)
[4] = dose: 100.0 mg/kg/injection, schedule: Q04DX002 (ip), vehicle: saline

Measured: T/C

C[N+](C)(CCC#N)Cc1ccc(C[N+](C)(C)CCC#N)cc1
inactive: dose: 5.0 mg/kg/injection, schedule: Q01DX001 (ip), vehicle: saline 90 % of control | dose: 10.0 mg/kg/injection, schedule: Q01DX001 (ip), vehicle: saline 95 % of control | dose: 20.0 mg/kg/injection, schedule: Q01DX001 (ip), vehicle: saline 95 % of control

COC(=O)c1nnn(CN(CN(CN(Cn2nnc(C(=O)OC)c2C(=O)OC)[N+](=O)[O-])[N+](=O)[O-])[N+](=O)[O-])c1C(=O)OC
inactive: dose: 75.0 mg/kg/injection, schedule: Q01DX001 (ip), vehicle: Klucel (hydroxypropylcellulose) (HPC) 108 % of control | dose: 150.0 mg/kg/injection, schedule: Q01DX001 (ip), vehicle: Klucel (hydroxypropylcellulose) (HPC) 100 % of control | dose: 300.0 mg/kg/injection, schedule: Q01DX001 (ip), vehicle: Klucel (hydroxypropylcellulose) (HPC) 110 % of control

COC(=O)C1(C)CCC2(C)CCC3(C)C4=CC=C5C(=CC(=O)C(O)=C5C)C4(C)CCC3(C)C2C1 (stereo unspecified)
inactive: dose: 37.5 mg/kg/injection, schedule: Q01DX001 (sc), vehicle: steriod suspending solution 104 % of control | dose: 75.0 mg/kg/injection, schedule: Q01DX001 (sc), vehicle: steriod suspending solution 98 % of control | dose: 150.0 mg/kg/injection, schedule: Q01DX001 (sc), vehicle: steriod suspending solution 98 % of control | dose: 300.0 mg/kg/injection, schedule: Q01DX001 (sc), vehicle: steriod suspending solution 95 % of control

NC(=O)C1CCC1C(N)=O (stereo unspecified)
inactive: dose: 100.0 mg/kg/injection, schedule: Q01DX009 (ip), vehicle: saline with Tween-80 108 % of control | dose: 200.0 mg/kg/injection, schedule: Q01DX009 (ip), vehicle: saline with Tween-80 101 % of control | dose: 400.0 mg/kg/injection, schedule: Q01DX009 (ip), vehicle: saline with Tween-80 103 % of control

CC(=O)[O][Hg][CH]1Cc2ccccc2O1 (stereo unspecified)
inactive: dose: 15.0 mg/kg/injection, schedule: Q01DX001 (ip), vehicle: carboxymethylcellulose (CMC) 94 % of control

O=C(Nc1ccccc1Cl)Oc1ccc(-c2ccccc2)cc1Br
inactive: [1] 102 % of control | dose: 100.0 mg/kg/injection, schedule: Q04DX003 (ip), vehicle: Klucel (hydroxypropylcellulose) (HPC) 94 % of control | [2] 96 % of control | dose: 200.0 mg/kg/injection, schedule: Q04DX003 (ip), vehicle: Klucel (hydroxypropylcellulose) (HPC) 96 % of control | [3] 104 % of control | dose: 400.0 mg/kg/injection, schedule: Q04DX003 (ip), vehicle: Klucel (hydroxypropylcellulose) (HPC) 102 % of control

O=C1/C(=C/c2ccncc2)CCCc2ccccc21
inactive: dose: 6.25 mg/kg/injection, schedule: Q04DX003 (ip), vehicle: Klucel (hydroxypropylcellulose) (HPC) 98 % of control | dose: 12.5 mg/kg/injection, schedule: Q04DX003 (ip), vehicle: Klucel (hydroxypropylcellulose) (HPC) 97 % of control | dose: 25.0 mg/kg/injection, schedule: Q04DX003 (ip), vehicle: Klucel (hydroxypropylcellulose) (HPC) 97 % of control | dose: 200.0 mg/kg/injection, schedule: Q04DX003 (ip), vehicle: carboxymethylcellulose (CMC) 100 % of control

O=c1[nH]c(SCc2ccccc2[N+](=O)[O-])nc2nc[nH]c12
inactive: [1] 90 % of control | dose: 100.0 mg/kg/injection, schedule: Q04DX002 (ip), vehicle: Klucel (hydroxypropylcellulose) (HPC) 98 % of control | [4] 94 % of control | [2] 90 % of control | dose: 200.0 mg/kg/injection, schedule: Q04DX002 (ip), vehicle: Klucel (hydroxypropylcellulose) (HPC) 94 % of control | dose: 200.0 mg/kg/injection, schedule: Q04DX002 (ip), vehicle: saline 97 % of control | [3] 93 % of control | dose: 400.0 mg/kg/injection, schedule: Q04DX002 (ip), vehicle: Klucel (hydroxypropylcellulose) (HPC) 97 % of control | dose: 400.0 mg/kg/injection, schedule: Q04DX002 (ip), vehicle: saline 97 % of control

CN(C)CCCN=C(N)CCl
inactive: dose: 12.5 mg/kg/injection, schedule: Q04DX002 (ip), vehicle: saline 101 % of control | dose: 25.0 mg/kg/injection, schedule: Q04DX002 (ip), vehicle: saline 108 % of control | dose: 50.0 mg/kg/injection, schedule: Q04DX002 (ip), vehicle: saline 87 % of control | [4] 97 % of control

CC[C@@H](C(=O)[C@@H](C)[C@@H](O)[C@H](C)CCc1ccc(C)c(O)c1C(=O)O)[C@H]1O[C@](CC)([C@H]2CC[C@](O)(CC)[C@H](C)O2)C[C@@H]1C
inactive: dose: 3.12 mg/kg/injection, schedule: Q01DX009 (ip), vehicle: Klucel (hydroxypropylcellulose) (HPC) 93 % of control | dose: 6.25 mg/kg/injection, schedule: Q01DX009 (ip), vehicle: Klucel (hydroxypropylcellulose) (HPC) 96 % of control | dose: 12.5 mg/kg/injection, schedule: Q01DX009 (ip), vehicle: Klucel (hydroxypropylcellulose) (HPC) 94 % of control | dose: 25.0 mg/kg/injection, schedule: Q01DX009 (ip), vehicle: Klucel (hydroxypropylcellulose) (HPC) 94 % of control

Reference: PubChem BioAssay AID248 (DTP/NCI, 2004)
